Source: US6610689B2, “HIV protease inhibitors based on amino acid derivatives” (priority 2001, dated 2003)
Read-outs that look alike come from different tables or passages of the source.

Molecular target: T1, HIV protease (Human immunodeficiency virus type 1 group M subtype B, UniProt P04585)
T1 construct: A third viral enzyme known as protease then cleaves the polyproteins
Experiment: Enzymatic Assay for Determining the Inhibition Constant (Ki) of Synthetic Compounds Targeting the HIV Protease (fluorometric FRET assay)
Format: biochemical
Method in brief: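 Fluorometric FRET assay following protease cleavage of an EDANS/DABCYL-labelled substrate. Initial velocities without (Vo) and with inhibitor (Vi) measured; Ki derived from the Henderson equation using inhibitor and substrate concentrations and Km.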

| SMILES | Ki [µM] | further results |
| --- | --- | --- |
| COc1ccc(S(=O)(=O)N(CC2CCCC2)[C@@H](CCCCNC(=O)[C@H](Cc2c[nH]c3ccccc23)NC(=O)OC(C)(C)C)C(=O)O)cc1 [Example 151, Nα-Cyclopentylnethyl-Nα-(4-methoxybenzenesulfonyl)-Nε-(N′α-tert-butoxycarbonyl-L-tryptophanyl)-L-lysine] | 0.0053 | – |
| Cc1ccc(S(=O)(=O)N(CC(C)C)[C@@H](CCCCNC(=O)[C@H](Cc2ccccc2)NS(=O)(=O)c2ccccc2)C(=O)O)cc1 [Example 8, Nα-Isobutyl-Nα-(4-methylbenzenesulfonyl)-Nε-(N′α-benzenesulfonyl-L-phenylalanyl)-L-lysine] | 0.0019 | – |
| Cc1ccc(S(=O)(=O)N[C@@H](Cc2c[nH]c3ccccc23)C(=S)NCCCC[C@@H](C(=O)O)N(CC(C)C)S(=O)(=O)c2ccc(C)cc2)cc1 [Example 73, Nα-Isobutyl-Nα-(4-methylbenzenesulfonyl)-Nε-[N′α-(4-methylbenzenesulfonyl)-L-thiotryptophanyl]-L-lysine] | 0.014 | – |
| CC(=O)N[C@@H](Cc1c[nH]c2ccccc12)C(=O)NCCCC[C@@H](CO)N(CC(C)C)S(=O)(=O)c1ccc(C)cc1 [Example 131, (2S,2′S) 2-N-Isobutyl-2-N-(4-methylbenzenesulfonyl)-6-N-(N′α-acetyl-S-tryptophanyl)-2,6-diaminohexanol] | 0.003 | – |
| CC(=O)N[C@@H](Cc1c[nH]c2ccccc12)C(=O)NCCCC[C@@H](CO)N(CC(C)C)S(=O)(=O)c1ccc(N)cc1 [Example 168, (2S,2′S) 2-N-(4-Aminobenzenesulfonyl)-2-N-isobutyl-6-N-(N′α-acetyl-S-tryptophanyl)-2,6-diaminohexanol] | 0.0038 | – |
| Cc1ccc(S(=O)(=O)N(CC(C)C)C(CCCCNC(=O)C(Cc2c[nH]c3ccccc23)NS(=O)(=O)c2ccccc2)C(=O)OCC(O)CO)cc1 [Example 104, Nα-Isobutyl-Nα-(4-methylbenzenesulfonyl)-Nε-(N′α-benzenesulfonyl-L-tryptophanyl)-L-lysine 2,3-Dihydroxypropyl Ester] | > 0.3 | – |
| Cc1ccc(S(=O)(=O)N(CC(C)C)[C@@H](CCCCNC(=O)[C@@H]2Cc3ccccc3CN2S(=O)(=O)c2ccc(C)cc2)C(=O)O)cc1 [Example 65] | 0.024 | – |
| Cc1ccc(S(=O)(=O)N(CC(C)C)[C@@H](CCCCNC(=O)[C@@H](N)Cc2cn(Cc3ccccc3)cn2)C(=O)O)cc1 [Example 92, Nα-Isobutyl-Nα-(4-methylbenzenesulfonyl)-Nε-(Nτ-benzyl-L-histidinyl)-L-lysine] | > 0.3 | – |
| Cc1ccc(S(=O)(=O)N(CC(C)C)[C@@H](CCCCNC(=O)[C@H](Cc2ccccc2)NS(=O)(=O)c2cccs2)C(=O)NO)cc1 [Example 59, Nα-Isobutyl-Nα-(4-methylbenzenesulfonyl)-Nε-[N′α-(2-thiophenesulfonyl)-L-phenylalanyl]-L-lysine N-hydroxylamide] | 0.013 | – |
| Cc1ccc(S(=O)(=O)N(CC(C)C)[C@H](CO)CCCCNC(=O)[C@H](Cc2ccccc2)NS(=O)(=O)c2ccc(F)cc2)cc1 [Example 125, (2S,2′S) 2-N-Isobutyl-2-N-(4-methylbenzenesulfonyl)-6-N-[N′α-(4-fluorobenzenesulfonyl)-S-phenylalanyl]-2,6-diaminohexanol] | – | Ki (Table 1, compounds of formula I, read-out: Ki (anti-protease activity)): 0.039 µM |
| Cc1ccc(S(=O)(=O)N(CC(C)C)[C@@H](CCCCNC(=O)[C@H](Cc2ccccc2)NS(=O)(=O)c2cccs2)C(N)=O)cc1 [Example 58, Nα-Isobutyl-Nα-(4-methylbenzenesulfonyl)-Nε-[N′α-(2-thiophenesulfonyl)-L-phenylalanyl]-L-lysinamide] | 0.0052 | – |
| COC(=O)[C@H](CCCCNC(=S)[C@H](Cc1c[nH]c2ccccc12)NS(=O)(=O)c1ccc(C)cc1)N(CC(C)C)S(=O)(=O)c1ccc(C)cc1 [Example 75, Nα-Isobutyl-Nα-(4-methylbenzenesulfonyl)-Nε-[N′α-(4-methylbenzenesulfonyl)-L-thiotryptophanyl]-L-lysine Methyl Ester] | > 0.3 | – |
| Cc1ccc(S(=O)(=O)N(CC(C)C)[C@@H](CCCCNC(=O)[C@H](Cc2cn(Cc3ccccc3)cn2)NC(=O)OC(C)(C)C)C(=O)O)cc1 [Example 85, Nα-Isobutyl-Nα-(4-methylbenzenesulfonyl)-Nε-(N′α-tert-butoxycarbonyl-Nτ-benzyl-L-histidinyl)-L-lysine] | 0.124 | – |
| COc1ccc(S(=O)(=O)N(CC(C)C)[C@H](CO)CCCCNC(=O)[C@H](Cc2c[nH]c3ccccc23)NS(=O)(=O)c2ccc(C)cc2)cc1 [Example 149, (2S,2′S) 2-N-Isobutyl-2-N-(4-methoxybenzenesulfonyl)-6-N-[N′α-(4-methylbenzenesulfonyl)-S-tryptophanyl]-2,6-diaminohexanol] | 0.0075 | – |
| Cc1ccc(S(=O)(=O)N[C@@H](Cc2ccccc2)C(=O)NCCCC[C@@H](C(=O)O)N(CC(C)C)S(=O)(=O)c2cccs2)cc1 [Example 54, Nα-Isobutyl-Nα-(2-thiophenesulfonyl)-Nε-[N′α-(4-methylbenzenesulfonyl)-L-phenylalanyl]-L-lysine] | 0.017 | – |
| CC(C)CN([C@H](CO)CCCCNC(=O)[C@H](Cc1c[nH]c2ccccc12)NS(=O)(=O)c1ccc([N+](=O)[O-])cc1)S(=O)(=O)c1ccc(N)cc1 [Example 179, (2S,2′S) 2-N-(4-Aminobenzenesulfonyl)-2-N-isobutyl-6-N-[N′α-(4-nitrobenzenesulfonyl)-S-tryptophanyl]-2,6-diaminohexanol] | 0.032 | – |
| Cc1ccc(S(=O)(=O)N(CC(C)C)[C@@H](CCCCNC(=O)[C@H](CO)NC(=O)OCC2c3ccccc3-c3ccccc32)C(=O)O)cc1 [Example 36, Nα-Isobutyl-Nα-(4-methylbenzenesulfonyl)-Nε-[N′α-(9-fluorenylmethoxycarbonyl)-L-seryl]-L-lysine] | – | Ki (Anti-protease activity of Ne-amino acid substituted L-lysine derivatives and analogs of formula I, read-out: Ki): 0.162 µM |
| COC(=O)N[C@@H](Cc1ccccc1)C(=O)NCCCC[C@@H](CO)N(CC(C)C)S(=O)(=O)c1ccc(N)cc1 [Example 177, (2S,2′S) 2-N-(4-Aminobenzenesulfonyl)-2-N-isobutyl-6-N-(N′α-methoxycarbonyl-S-phenylalanyl)-2,6-diaminohexanol] | 0.0066 | – |
| CC(=O)Nc1ccc(S(=O)(=O)N[C@@H](Cc2ccccc2)C(=O)NCCCC[C@@H](C(=O)O)N(CC(C)C)S(=O)(=O)c2ccc(N)cc2)cc1 [Example 56, Nα-(4-Aminobenzenesulfonyl)-Nα-isobutyl-Nε-[N′α-(4-acetylaminobenzenesulfonyl)-L-phenylalanyl]-L-lysine] | 0.0019 | – |
| Cc1ccc(S(=O)(=O)NC(Cc2c[nH]c3ccccc23)C(=O)NCCCCC(C(=O)OCC(O)CO)N(CC(C)C)S(=O)(=O)c2ccc(C)cc2)cc1 [Example 45, Nα-Isobutyl-Nα-(4-methylbenzenesulfonyl)-Nε-[N′α-(4-methylbenzenesulfonyl)-L-tryptophanyl]-L-lysine 2,3-Dihydroxypropyl Ester] | > 0.3 | – |
| COc1ccc(CC(=O)N[C@@H](Cc2c[nH]c3ccccc23)C(=O)NCCCC[C@@H](C(=O)O)N(CC(C)C)S(=O)(=O)c2ccc(C)cc2)cc1 [Example 164, Nα-Isobutyl-Nα-(4-methylbenzenesulfonyl)-Nε-[N′α-(4-methoxyphenylacetyl)-L-tryptophanyl]-L-lysine] | 0.00032 | – |
| CC(C)CN([C@H](CO)CCCCNC(=O)CN(Cc1ccccc1)c1ccccc1)S(=O)(=O)c1ccc(N)cc1 [Example 182, (2S) 2-N-(4-Aminobenzenesulfonyl)-2-N-isobutyl-6-N-(N′α-benzyl-N′α-phenylglycyl)-2,6-diaminohexanol] | 0.0024 | – |
